Assay results taken from patent US10137099B2, “Activation of AMP-protein activated kinase by oxaloacetate compounds” (priority 2010, dated 2018).
Where two headings read alike, the source gives them in different places.

Tests used:
ob/ob and db/db mice = details: 8 day administration; cited from earlier work
[1] = Example 3: body weight of obese patient over three months; type: in vivo, human
Excerpt: AMPK is activated and the patient drops in weight from 258 to 234 pounds in a three month period. The patient is no longer obese.

[2] = Stability and shelf life of oxaloacetic acid forms; details: for stability / shelf life at room temperature: kept dry, reduced water content
Excerpt: (§1) The keto-oxaloacetate decarboxylates quickly to pyruvate. As the keto-oxaloacetate form disappears due to decarboxylation, the enol and hydrated form convert to keto-oxaloacetate, and then also decarboxylate into carbon dioxide and pyruvate, until all the oxaloacetate is consumed. Note that neither of the byproducts of oxaloacetate decarboxylation, carbon dioxide and pyruvate, are effective in activating AMPK.
(§2) The keto-oxaloacetate decarboxylates quickly, followed by enol conversion to keto form and further decarboxylation. […] Na-OAA has no shelf life, and is not available commercially.
There is an energy gap between the enol and keto form which is bridged when the compounds are exposed to water, however, this same energy gap prevents the conversion of the enol to keto form when the product is kept dry. Once there is a conversion to the keto form, decarboxylation can spontaneously occur at temperatures above the freezing point of water. […] Drying effectiveness can be increased by increasing the drying time, drying under vacuum, by using anhydrous washes of isopropyl alcohol or ethyl alcohol to absorb the remaining water (and then evaporating the alcohol), or by performing multiple washes with hexane or non-water soluble solvent to physically remove the water, typically after an alcohol wash. The non-water soluble solvent would then be evaporated off. […] Hexane is a residual solvent in many commercial food preparations including decaffeinated coffee, and is not toxic in small quantities. Alternatively, the final wash can be performed with liquefied propane, liquefied butane, ethyl acetate, ethane, carbon dioxide, or nitrous oxide to reduce the water content.
Biochem., vol. 26, pp. 418-421, 1950, also in Heidelberger; “The Synthesis of Oxalacetic Acid-1-C14 and Orotic Acid-6-C14”, Biochem. Prepn. 3, 59 (1953) pp 4704-4706.

[3] = Example 2: fasting blood glucose tracked for several weeks; type: in vivo, human; details: 100 mg daily
Excerpt: The amplitude of the patient's swings in fasting glucose decrease by 55% due to improved glucose homeostasis. AMPK is activated and overall fasting glucose levels drop by 8%. The data is shown in Graph 3.

[4] = Example 1: non-diabetic subject, blood panel after 6 months; type: in vivo, human
Procedure: A non-diabetic subject is given 100 mg anhydrous enol-oxaloacetic acid in solid form for a period of 6 months to reduce blood triglycerides and glucose levels. AMPK is activated and the treatment is effective.

[5] = Example 5: blood pressure in patient with hypertension; type: in vivo, human; details: 100 mg daily for three months
Excerpt: A patient is diagnosed with hypertension. […] The patient's blood pressure decreases by 10%.

[6] = Example 4: maintenance of weight loss after diet; type: in vivo, human; details: 100 mg daily
Excerpt: A patient successfully loses 24 pounds.

[7] = Blood-brain barrier penetration
Excerpt: AMPK activation has been associated with reduced Alzheimer risk and potentially with Alzheimer's treatment (Richter, Erik and Ruderman, Neil, “AMPK and the biochemistry of exercise: implications for human health and disease” Biochem. J. (2009) 418, 261-275). Thus OAA may be used for reducing the risk of Alzheimer's disease and for treatment of the same.

[8] = 21 diabetic patients, cited from earlier work
[9] = test system: human A549 lung cancer tissue; details: uM levels, contact solution of 76 uM; not within normal tissue; cancer tissue unable to reproduce for six weeks; cited from earlier work
rats = details: cited from earlier work
C. elegans = C. elegans lifespan with functional and non-functional AMPK; type: in vivo, Caenorhabditis elegans; details: for lifespan of worms with non-functional alpha AMPK subunit: dysfunctional aak-2 subunit; for lifespan of worms with non-functional alpha AMPK subunit / increase of lifespan: 8 mM oxaloacetate; for increase of lifespan: worms with functional FOXO/DAF-16 and AMPK, p<0.001
Procedure: I have assayed the CR mimetic OAA for AMPK activation by using the worm C. elegans containing a non-functional alpha AMPK subunit, and have compared lifespan with and without the functional AMPK subunit. […] Graph 1 is the Kaplan-Meyer survival curves for worms with functional and non-functional AMPK showing the difference in lifespan.
AMPK activation is necessary to increase lifespan of C. elegans when exposed to 8 mM concentrations of oxaloacetate. The increase in lifespan averages approximately 25%, p<0.001.

older mice = experiment: Chronic eighteen-month study in older mice; type: in vivo; details: 380 mg OAA/kg of mouse, eighteen months
[10] = Removal of orally consumed oxaloacetic acid from blood stream into cells; type: in vivo, human
Procedure: The oxaloacetic acid is converted to the ionic form oxaloactate in the digestive tract, and is then absorbed into the body and is distributed throughout the body via the bloodstream. […] At time 0, the amount detected was 0 ug/100 ml blood, at time 30 minutes 0 ug/100 ml blood, and at time 60 minutes ranged from […] blood. […] Within the cells the oxaloacetate reacts into L-malate as it encounters the enzyme malate dehydrogenase (MDH). MDH is ubiquitous in human cells, and the conversion of oxaloacetate to malate is very energetically favorable (the Gibbs Free Energy, delta G, is highly negative (−29.7) indicating the reaction is very favorable to proceed). As oxaloacetate is converted to malate, NADH is converted to NAD+. The resulting increase in the NAD+/NADH ratio leads to the phosphorylation (activation) of AMPK (Rafaeloff-Phail R, Ding L, Conner L, et al. “Biochemical regulation of mammalian AMP-activated protein Kinase activity by NAD and NADH”. J Biol Chem 2004; 279: 52934-9). AMPK serves to stimulate glucose uptake into the skeltal tissues and thereby reduces glucose levels. The immediate reduction is best seen with a glucose tolerance test in individuals that have defective leptin signaling (including overweight and obese persons) that are fasting. […]

[11] = Hydrated/keto/enol composition in water; type: physicochemical; details: pH 6.9 (oxaloacetic acid), Na-OAA dissolved in water
Excerpt: The oxaloacetate can be in three forms depending on the pH of the solution. At low pH (<1.5) and low temperature (<4 degrees C.) oxaloacetate hydrates. […] The hydrated form is mostly converted once it enters the higher pH of the body outside of the intestinal tract to the keto and enol form. […] Enol-oxaloacetate is convert to keto-oxaloacetate with the enzyme enol-keto tautomerase, a ubiquitous enzyme throughout the human body.
as §1, §2

in vivo = details: rat
Excerpt: (§3) I have investigated the toxicity of OAA in an acute study and two chronic studies.
(§4) The dose ratio between toxic and therapeutic effects is the therapeutic index and it can be expressed as the ratio LD50/ED50.

mouse = test system: mouse
Excerpt: as §3, §4

[12] = Glucose related effects of supplementation in humans; type: in vivo, human; details: non-diabetic patients
Excerpt: Glucose related effects in humans have measured an 8 to 10% drop in fasting glucose levels in non-diabetic patients, a drop in triglyceride levels by 10% and a 55% reduction in the amplitude of fasting blood glucose levels.

[13] = Decrease (Improvement), February to August 2007

NC(=O)c1ncn([C@@H]2O[C@H](CO)[C@@H](O)[C@H]2O)c1N [AICAR, 5-Aminoimidazole-4-darboxamide ribonucleoside]
reduction of blood glucose (ob/ob and db/db mice): 35%

O=C(O)CC(=O)C(=O)O [anhydrous enol-oxaloacetic acid]
Ending Weight May 2007 ([1]; 100 mg daily, three month period, starting weight 258): 234 pounds
Percent Reduction of weight ([1]; February 2007 to May 2007): 9.3%
stability / shelf life at room temperature [2]: exceeding one year
stability / shelf life at room temperature ([2]; listed as reduced water content oxaloacetate form): exceed one year
product decay ([2]; room temperatures, shelf life exceeding one year): less than 1%
decrease of amplitude of swings in fasting glucose [3]: 55%
drop of overall fasting glucose levels [3]: 8%
Glucose Fasting, August 2007 ([4]; 100 mg daily for 6 months, February 2007 baseline 97): 89 mg/dL
Glucose Fasting % Change [4, 13]: 8.25%
Triglyceride % Change [4, 13]: 8.93%
Creatinine, August 2007 ([4]; after 6 months, baseline 1): 0.9 mg/dL
TSH, August 2007 ([4]; after 6 months, baseline 1.41): 1.32 uIU/ml
Albumin, August 2007 ([4]; after 6 months, baseline 4.4): 4.2 g/dL
K (Potassium), August 2007 ([4]; after 6 months, baseline 4.6): 4.5 mEq/L
Bun-Ser, August 2007 ([4]; after 6 months, baseline 14): 12 mg/dL
AST (SGOT), August 2007 ([4]; after 6 months, baseline 16): 15 IU/L
Lipase, August 2007 ([4]; after 6 months, baseline 17): 19 u/l
CO2 (Carbon Dioxide), August 2007 ([4]; after 6 months, baseline 27): 29 mEq/L
ALK P'TASE, August 2007 ([4]; after 6 months, baseline 36): 37 IU/L
HDL Ser Cholesterol, August 2007 ([4]; after 6 months, baseline 42): 42 mg/dL
Cl (Chloride), August 2007 ([4]; after 6 months, baseline 110): 108 mEq/L
Triglyceride, August 2007 ([4]; after 6 months, baseline 112): 102 mg/dL
LDL Cholesterol, August 2007 ([4]; after 6 months, baseline 138): 138 mg/dL
Na (Sodium), August 2007 ([4]; after 6 months, baseline 144): 143 mEq/L
Total Cholesterol, August 2007 ([4]; after 6 months, baseline 202): 203 mg/dL
decrease of blood pressure [5]: 10%
liver genes Acaa1, Cnbp, Fasn, Idil, Ndufabl, Pcx, Sc5d (human homologues) [6]: down regulates
regain of weight lost ([6]; one-year period after the diet, 24 pounds lost): does not regain the weight lost

O=C(O)CC(O)(O)C(=O)O [hydrated form of oxaloacetic acid]
shelf life [2]: no shelf life
time of stability [2]: less than one-week's time

O=C(O)CC(=O)C(=O)O [oxaloacetic acid]
blood-brain barrier penetration [7]: can penetrate the blood-brain barrier
side effects ([8]; 100 mg to 1,000 mg (2-10 mg/kg)): no negative side effects
blood glucose levels ([8]; 100 mg to 1,000 mg): dropped significantly in all patents
patients in whom urine glucose levels dropped ([8]; 100 mg to 1,000 mg): 19 out of the 21
effect on cancer tissue [9]: differential massive debris within the cancer tissue
time to decarboxylation ([2]; divalent cations in the fluid): within a day
pancreas findings at 41 mg/kg of body weight (rats; 41 mg/kg): proliferation and hyperplasia of the islet cells
pancreas findings at 83 mg/kg of body weight (rats; 83 mg/kg): caused changes in pancreatic islets
lifespan of worms with non-functional alpha AMPK subunit (C. elegans): no increase in lifespan
lifespan of worms with non-functional alpha AMPK subunit (C. elegans; listed as OAA): will not increase the lifespan
lifespan of wild type worms subjected to calorie restriction (C. elegans; functional AMPK, calorie restriction plus OAA supplementation): do not have their lifespan increased
increase of lifespan (C. elegans): approximately 25%
increase of lifespan (C. elegans; listed as OAA): 25%
lived longer than the control group (older mice): 25%
time until most is moved from the blood stream into individual cells [10]: ≤ 120 min
fraction in the enol form [11]: 11%
fraction in the hydrated form [11]: 5%
fraction in the keto form [11]: 84%
NOAEL at 90 days (in vivo): 500 mg/kg
LD50 (mouse; acute study, taken with food): more than 5,000 mg OAA/Kg of mouse
LD50 (mouse; mouse, in vivo): above 5 g/kg of body weight
drop in triglyceride levels [12]: 10%
reduction in the amplitude of fasting blood glucose levels [12]: 55%

O=C([O-])CC(=O)C(=O)O.[Na+] [sodium oxaloacetate]
shelf life [2]: no shelf life
fraction in the enol form [11]: 11%
fraction in the hydrated form [11]: 5%
fraction in the keto form [11]: 84%
